Our source for the IC50 and inhibition values is US20240083857A1, “2-Methyl-Quinazolines” (Bayer Pharma Aktiengesellschaft, priority 2017, published 2024).

The target of test [1] is K-Ras^G12C : hSOS1 interaction (Homo sapiens, UniProt Q07889). Put plainly: Biochemical assay 1: K-Ras^G12C interaction assay with hSOS1 (HTRF). The following applies: read-out: Assay 1 (KRAS-SOS Interaction) activity expressed as IC50. The class given is binding. (In general: TR-FRET usually uses a lanthanide donor and a delayed reading to cut background.)
The target in test [2] is human SOS1 (nucleotide exchange of K-Ras^G12C) (Homo sapiens, UniProt Q07889). As to the kind of experiment: Biochemical assay 2: K-Ras^G12C activation assay by hSOS1 at high GTP concentration (HTRF). The following applies: high GTP; for IC50: read-out: Assay 2 (KRAS-Activation by SOS high GTP) activity expressed as IC50.

As usually defined, the IC50 is the concentration that gives 50% inhibition. As to `C=Cc1ccccc1-c1ccc(C(C)Nc2nc(C)nc3cc(OC)c(OC)cc23)s1` (centres unmarked) [Example 248, N-{1-[5-(2-ethenylphenyl)thiophen-2-yl]ethyl}-6,7-dimethoxy-2-methylquinazolin-4-amine], the IC50 is 1.49 µM in test [1] and 8.08 µM in test [2].
On the same counts, the results for `C=C(C)c1ccc([C@@H](C)Nc2nc(C)nc3cc(OC)c(OC)cc23)cc1` [Example 203, 6,7-dimethoxy-2-methyl-N-{(1R)-1-[4-(prop-1-en-2-yl)phenyl]ethyl}quinazolin-4-amine] are 1.37 µM and 1.38 µM.
For the molecule `COc1cc2nc(C)nc(NC(C)c3ccc(-c4ccccc4CN4CCC(O)C4)s3)c2cc1OC` (centres unmarked) [Example 210, 1-[2-(5-{1-[(6,7-dimethoxy-2-methylquinazolin-4-yl)amino]ethyl}thiophen-2-yl)benzyl]pyrrolidin-3-ol], the IC50 in test [1] came out at 0.0385 µM; in test [2] it was 0.109 µM.
Turning to `COc1cc2nc(C)nc(N[C@H](C)c3cccc(-c4cnn(CCO)c4)c3)c2cc1OC` [Example 256, 2-[4-(3-{(1R)-1-[(6,7-dimethoxy-2-methylquinazolin-4-yl)amino]ethyl}phenyl)-1H-pyrazol-1-yl]ethanol], the figures for the IC50 in test [1] and in test [2] were 0.473 µM and 0.828 µM, respectively.
For `COc1cc2nc(C)nc(NC(C)c3ccc(-c4ccccc4C(N)=O)s3)c2cc1OC` (centres unmarked) [Example 240, 2-(5-{1-[(6,7-dimethoxy-2-methylquinazolin-4-yl)amino]ethyl}thiophen-2-yl)benzamide], the IC50 worked out at 3.21 µM in test [1] and 3.19 µM in test [2].
In the same order, the values of `COc1cc2nc(C)nc(N[C@H](C)c3ccc(F)cc3)c2cc1OC` [Example 12, N-[(1R)-1-(4-fluorophenyl)ethyl]-6,7-dimethoxy-2-methylquinazolin-4-amine] are 0.335 µM and 0.578 µM.
In the same order, the values of `COc1cc2nc(C)nc(NC(C)c3ccc(-c4ccccc4CCO)s3)c2cc1OC` (centres unmarked) [Example 180, 2-[2-(5-{1-[(6,7-dimethoxy-2-methylquinazolin-4-yl)amino]ethyl}thiophen-2-yl)phenyl]ethanol] are 0.241 µM and 0.921 µM.
For the molecule `COc1cc2nc(C)nc(NC(C)c3ccc(-c4cnc5n4CCC5)s3)c2cc1OC` (centres unmarked) [Example 219, N-{1-[5-(6,7-dihydro-5H-pyrrolo[1,2-a]imidazol-3-yl)thiophen-2-yl]ethyl}-6,7-dimethoxy-2-methylquinazolin-4-amine], the figures for the IC50 in test [1] and in test [2] were 0.415 µM and 0.57 µM, respectively.
In the same order, the values of `COc1cc2nc(C)nc(NC(C)c3cccc4cn(C)nc34)c2cc1OC` (centres unmarked) [Example 8, 6,7-dimethoxy-2-methyl-N-[1-(2-methyl-2H-indazol-7-yl)ethyl]quinazolin-4-amine] are 18.2 µM and 19.8 µM.
On to `COc1cc2nc(C)nc(N[C@H](C)c3cccc(Cl)c3)c2cc1OC` [Example 2, N-[(1R)-1-(3-chlorophenyl)ethyl]-6,7-dimethoxy-2-methylquinazolin-4-amine], for which the IC50 in test [1] was determined as 0.127 µM; in test [2], 0.207 µM.
On the same counts, the results for `COc1cc2nc(C)nc(NC(C)c3cccc(Oc4ccccc4)c3)c2cc1OC` (centres unmarked) [Example 215, 6,7-dimethoxy-2-methyl-N-[1-(3-phenoxyphenyl)ethyl]quinazolin-4-amine] are 0.906 µM and 1.16 µM.
In the case of `COc1cc2nc(C)nc(NC(C)c3ccc(-c4ccccc4CN4CCC[C@H]4CN(C)C)s3)c2cc1OC` (stereo partly drawn) [Example 185, N-[1-{5-[2-({(2S)-[(dimethylamino)methyl]pyrrolidin-1-yl}methyl)phenyl]thiophen-2-yl}ethyl]-6,7-dimethoxy-2-methylquinazolin-4-amine], the IC50 in test [1] worked out at 0.0788 µM; in test [2] it was 0.344 µM.
Regarding `COc1cc2nc(C)nc(NC(C)c3ccc(-c4ccccc4CN4CC5(COC5)C4)s3)c2cc1OC` (centres unmarked) [Example 182, 6,7-di methoxy-2-methyl-N-[1-{5-[2-(2-oxa-6-azaspiro[3.3]hept-6-ylmethyl)phenyl]thiophen-2-yl}ethyl]quinazolin-4-amine], the IC50 came out at 0.051 µM in test [1] and 0.123 µM in test [2].
`COc1cc2nc(C)nc(NC(C)c3cccc4c3CCCC4)c2cc1OC` (centres unmarked) [Example 11, 6,7-dimethoxy-2-methyl-N-[1-(5,6,7,8-tetrahydronaphthalen-1-yl)ethyl]quinazolin-4-amine]: the IC50 in test [1] was determined as 0.203 µM; in test [2], 0.221 µM.
On the same counts, the results for `COc1cc2nc(C)nc(NC(C)c3ccc(-c4cccc5cn[nH]c45)s3)c2cc1OC` (centres unmarked) [Example 246, N-{1-[5-(1H-indazol-7-yl)thiophen-2-yl]ethyl}-6,7-dimethoxy-2-methylquinazolin-4-amine] are 7.59 µM and 4.21 µM.
On the same counts, the results for `COc1cc2nc(C)nc(NC(C)c3ccc(-c4ccc(F)cc4CN)s3)c2cc1OC` (centres unmarked) [Example 234, N-[1-{5-[2-(aminomethyl)-4-fluorophenyl]thiophen-2-yl}ethyl]-6,7-dimethoxy-2-methylquinazolin-4-amine] are 0.0756 µM and 0.0654 µM.
With `COc1cc2nc(C)nc(NC(C)c3cccs3)c2cc1OC` (centres unmarked) [Example 207, 6,7-dimethoxy-2-methyl-N-[1-(thiophen-2-yl)ethyl]quinazolin-4-amine], the figures for the IC50 in test [1] and in test [2] were 2.73 µM and 2.27 µM, respectively.
In the same order, the values of `COc1cc2nc(C)nc(NC(C)c3ccc(-c4cccc(CCO)c4)s3)c2cc1OC` (centres unmarked) [Example 181, 2-[3-(5-{1-[(6,7-dimethoxy-2-methylquinazolin-4-yl)amino]ethyl}thiophen-2-yl)phenyl]ethanol] are 3.5 µM and 6.51 µM.
On the same counts, the results for `COc1cc2nc(C)nc(NC(C)c3ccc(-c4cnn(CCO)c4)s3)c2cc1OC` (centres unmarked) [Example 218, 2-[4-(5-{1-[(6,7-dimethoxy-2-methylquinazolin-4-yl)amino]ethyl}thiophen-2-yl)-1H-pyrazol-1-yl]ethanol] are 1.96 µM and 1.37 µM.
As usually defined, the inhibition is the percentage by which the read-out fell short of the control. Consider `COc1cc2nc(C)nc(N[C@H](C)c3ccc(C4=CCN(C)CC4)cc3)c2cc1OC` [Example 201, 6,7-dimethoxy-2-methyl-N-{(1R)-1-[4-(1-methyl-1,2,3,6-tetrahydropyridin-4-yl)phenyl]ethyl}quinazolin-4-amine], for which, in test [1], the IC50 stood at 19.7 µM. In addition, the inhibition at 20 µM in test [2] (read-out: Assay 2 (KRAS-Activation by SOS high GTP) activity expressed as % inhibition at 20 μM, at 20 μM) stood at 20%.
With `COc1cc2nc(C)nc(NC(C)c3cccc4ccoc34)c2cc1OC` (centres unmarked) [Example 4, N-[1-(1-benzofuran-7-yl)ethyl]-6,7-dimethoxy-2-methylquinazolin-4-amine], the IC50 in test [1] amounted to 0.161 µM; in test [2], 0.243 µM.
In the same order, the values of `COc1cc2nc(C)nc(NC(C)c3ccc(-c4ccc(C(N)=O)cc4)s3)c2cc1OC` (centres unmarked) [Example 242, 4-(5-{1-[(6,7-dimethoxy-2-methylquinazolin-4-yl)amino]ethyl}thiophen-2-yl)benzamide] are 1.83 µM and 1.5 µM.
In the case of `COc1cc2nc(C)nc(NC(C)c3cc(C)c(Br)s3)c2cc1OC` (centres unmarked) [Example 183, N-[1-(5-bromo-4-methylthiophen-2-yl)ethyl]-6,7-dimethoxy-2-methylquinazolin-4-amine], the IC50 in test [1] is 2.11 µM; in test [2], 4.2 µM.
In the same order, the values of `CCOc1ccccc1-c1ccc(C(C)Nc2nc(C)nc3cc(OC)c(OC)cc23)s1` (centres unmarked) [Example 232, N-{1-[5-(2-ethoxyphenyl)thiophen-2-yl]ethyl}-6,7-dimethoxy-2-methylquinazolin-4-amine] are 9.01 µM and 9.29 µM.
On the same counts, the results for `COc1cc2nc(C)nc(N[C@H](C)c3cccc(S(C)(=O)=O)c3)c2cc1OC` [Example 198, 6,7-dimethoxy-2-methyl-N-{(1R)-1-[3-(methylsulfonyl)phenyl]ethyl}quinazolin-4-amine] are 0.291 µM and 0.518 µM.
On the same counts, the results for `COc1cc2nc(C)nc(NC(C)c3cccc4sccc34)c2cc1OC` (centres unmarked) [Example 205, N-[1-(1-benzothiophen-4-yl)ethyl]-6,7-dimethoxy-2-methylquinazolin-4-amine] are 0.0738 µM and 0.0872 µM.
Turning to `COc1cc2nc(C)nc(NC(C)c3ccc(-c4ccccc4CN4CC[C@H](F)C4)s3)c2cc1OC` (stereo partly drawn) [Example 211, N-{1-[5-(2-{[(3S)-3-fluoropyrrolidin-1-yl]methyl}phenyl)thiophen-2-yl]ethyl}-6,7-dimethoxy-2-methylquinazolin-4-amine], the IC50 in test [1] is 0.133 µM; in test [2], 0.292 µM.
In the same order, the values of `COc1cc2nc(C)nc(NC(C)c3cccc4cccnc34)c2cc1OC` (single isomer, unassigned; enantiomer 1) [Example 230, 6,7-dimethoxy-2-methyl-N-[1-(quinolin-8-yl)ethyl]quinazolin-4-amine, Enantiomer 1] are 4.9 µM and 6.69 µM.
In the same order, the values of `COc1cc2nc(C)nc(NC(C)c3ccc(C4=CCOCC4)s3)c2cc1OC` (centres unmarked) [Example 235, N-{1-[5-(3,6-dihydro-2H-pyran-4-yl)thiophen-2-yl]ethyl}-6,7-dimethoxy-2-methylquinazolin-4-amine] are 5.47 µM and 4.72 µM.
On the same counts, the results for `COc1cc2nc(C)nc(NC(C)c3ccc(-c4ccccc4)o3)c2cc1OC` (centres unmarked) [Example 213, 6,7-dimethoxy-2-methyl-N-[1-(5-phenylfuran-2-yl)ethyl]quinazolin-4-amine] are 6.76 µM and 6.31 µM.
For `COc1cc2nc(C)nc(NC(C)c3cc(Br)cc4c3OCC4)c2cc1OC` (centres unmarked) [Example 214, N-[1-(5-bromo-2,3-dihydro-1-benzofuran-7-yl)ethyl]-6,7-dimethoxy-2-methylquinazolin-4-amine], the IC50 was determined as 3.33 µM in test [1] and 3.96 µM in test [2].
